These results are taken from patent US10005792B2, “Aminoindane-, aminotetrahydronaphthalene- and aminobenzocyclobutane-derived PRMT5-inhibitors” (CTXT PTY LTD, priority 2014, dated 2018).

Molecules are shown by their SMILES.

The target of experiment [1] is T1, Full-length PRMT5 enzyme co-expressed with MEP50 (Homo sapiens (Human), UniProt O14744). Nature of the experiment: PRMT5 Biochemical Assay. The settings on record: 200 nM histone H4 derived peptide substrate, 1 μM S-Adenosyl methionine, 4 hours at 37° C, Transcreener EPIGEN fluorescence polarisation. As to the method:
Compounds of the invention may be tested for in vitro activity in the following assay: A histone H4 derived peptide is used as substrate (amino acid sequence: […]NH2). Full-length PRMT5 enzyme (NCBI Reference sequence NP-006100.2) was co-expressed with Hiss-MEP50 in insect cells and purified via Nickel immobilized metal affinity and gel filtration chromatography (“the enzyme”).
The 6 μL assay reactions are run in Greiner brand black 384-well low volume plates. All reactions contained assay buffer (phosphate buffered saline, 0.01% (v/v) Tween-20, 0.01% (w/v) albumin from chicken egg white, 1 mM dithiothreitol, 200 nM peptide substrate, 1 μM S-Adenosyl methionine, and 15 ng/reaction enzyme, with the enzyme being omitted from negative control reactions. Compounds were added in a volume of 100 nL from dilution series prepared in DMSO, positive and negative control reactions receiving the same volume DMSO without compound. The plates were sealed with adhesive seals and incubated for 4 hours at 37° C. Reaction progress was measured using the Transcreener™ EPIGEN methyltransferase assay (BellBrook Labs, Madison, Wis.) as recommended by the manufacturer. To each reaction 2 μL detection mix were added, containing coupling enzymes, fluorescence polarisation tracer, and AMP antibody. Plates were incubated for 90 min before being read on a PerkinElmer EnVision™ plate reader in fluorescence polarisation mode.

In experiment [2] the test system is symmetrical dimethylation of arginine (Di-Methyl Histone H4R3) in cell line TE11. As to the kind of experiment: PRMT5 Biomarker Assay. In kind it is cell-based. To be noted: Homo sapiens, TE-11; TE11 cells, 72 h incubation, EpiQuik Global Di-Methyl Histone H4R3 ELISA, corrected for total protein. As to the method:
(§1) Compounds of the invention may be tested for potency to inhibit symmetrical dimethylation of arginine in the following assay:
The cell line TE11 was seeded at a density of 12,000 cells per well in 96 well tissue culture plates in DME medium and 10% foetal bovine serum, and allowed to adhere overnight under standard culture conditions (37° C., 5% CO2). Compound dilutions prepared in DMSO were added to the medium, with negative control wells reserved for treatment with DMSO only and positive controls receiving a potent PRMT5 inhibitor. The concentration of the inhibitor had been previously determined to give maximum inhibition of the methylation. After incubation for 72 h, cells were washed twice in ice-cold PBS, lysed in lysis buffer (20 mM Tris pH 7.4, 135 mM NaCl, 1.5 mM MgCl2, 1 mM EGTA, 10% glycerol and 1% Triton-X100), centrifuged at 15,000×g and the supernatants collected for subsequent analysis. The methylation level was determined using the EpiQuik™ Global Di-Methyl Histone H4R3 Quantification ELISA Kit (Epigentek, Farmingdale, N.Y.) as per the manufacturer's recommendations; in parallel the total protein amount in the lysate was quantified using a Lowry protein assay. The methylation level was corrected for the total protein amount of each sample, normalised to the controls, and the data fitted against a four-parameter logistic model to determine the 50% inhibitory concentration (IC50).

In experiment [3] the test system is symmetrical dimethylation of arginine (Di-Methyl Histone H4 Arginine 3) in cell line TE11. Nature of the experiment: Revised PRMT5 Biomarker Assay. To be noted: Homo sapiens, TE-11; TE11 cells, 72 hours incubation, immunofluorescence, corrected for cell number (Hoechst 33342), plate reader based. On the procedure: as §1
The cell line TE11 was seeded at a density of 6,000 cells per well in 96 well optical quality tissue culture plates in DME medium and 10% foetal bovine serum, and allowed to adhere for 5 hours under standard culture conditions (37 degree Celsius, 5% CO2). Compound dilutions prepared in DMSO were added to the medium, with negative control wells reserved for treatment with DMSO only and positive controls receiving a potent PRMT5 inhibitor compound at 1 μM concentration. After incubation for 72 hours, the cells were fixed with 3.7% formaldehyde in PBS for 30 minutes at room temperature, washed with phosphate buffer saline and blocked with Odyssey blocking buffer (LI-COR, Lincoln, Nebr.). Rabbit anti-Di-Methyl Histone H4 Arginine 3 specific antibody (Epigentek) in Odyssey blocking buffer was added and incubated for 14 hours at 4 degree Celsius. After washing, anti-rabbit secondary antibody labelled with Alexa647 dye (LifeTechnologies) and Hoechst 33342 (1 μg/mL, SigmaAldrich) were added for 1 hour incubation. Plates were washed and read on a PerkinElmer Envision 2103 in fluorescence intensity scanning mode (24 scans across the well area). The methylation level information was corrected for the number of cells as expressed by the Hoechst 33342 stain, converted to percent inhibition relative to controls on the same plate and the data fitted against a four-parameter logistic model to determine the 50% inhibitory concentration (IC50 plate-reader based). Alternatively, the plates were imaged on a PerkinElmer Phenix high content imaging platform. Using a Columbus image analysis pipeline, individual nuclei were located by Hoechst 33342 stain and the methylation level was calculated from the Alexa647-related intensity in the same area. The resulting mean intensity per cell was directly converted to percent inhibition as outlined above (IC50, imager based)).

The target of experiment [4] is T1, Full-length PRMT5 enzyme co-expressed with MEP50. Nature of the experiment: Revised PRMT5 Biochemical Assay. To be noted: 1 μM histone H4 derived peptide substrate, 1 μM S-Adenosyl methionine, 4 hours at 37 degree Celsius, Transcreener EPIGEN fluorescence polarisation. In a few lines:
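Full-length human PRMT5 co-expressed with His-MEP50 in insect cells (15 ng/reaction), 1 μM H4-derived peptide and 1 μM SAM in PBS/0.01% Tween-20/egg albumin/1 mM DTT, 4 h at 37 °C. SAH formation read by Transcreener EPIGEN fluorescence polarisation after 90 min detection. IC50 from four-parameter fit of plate-normalised % inhibition.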

T1 sequence (O14744 whole entry): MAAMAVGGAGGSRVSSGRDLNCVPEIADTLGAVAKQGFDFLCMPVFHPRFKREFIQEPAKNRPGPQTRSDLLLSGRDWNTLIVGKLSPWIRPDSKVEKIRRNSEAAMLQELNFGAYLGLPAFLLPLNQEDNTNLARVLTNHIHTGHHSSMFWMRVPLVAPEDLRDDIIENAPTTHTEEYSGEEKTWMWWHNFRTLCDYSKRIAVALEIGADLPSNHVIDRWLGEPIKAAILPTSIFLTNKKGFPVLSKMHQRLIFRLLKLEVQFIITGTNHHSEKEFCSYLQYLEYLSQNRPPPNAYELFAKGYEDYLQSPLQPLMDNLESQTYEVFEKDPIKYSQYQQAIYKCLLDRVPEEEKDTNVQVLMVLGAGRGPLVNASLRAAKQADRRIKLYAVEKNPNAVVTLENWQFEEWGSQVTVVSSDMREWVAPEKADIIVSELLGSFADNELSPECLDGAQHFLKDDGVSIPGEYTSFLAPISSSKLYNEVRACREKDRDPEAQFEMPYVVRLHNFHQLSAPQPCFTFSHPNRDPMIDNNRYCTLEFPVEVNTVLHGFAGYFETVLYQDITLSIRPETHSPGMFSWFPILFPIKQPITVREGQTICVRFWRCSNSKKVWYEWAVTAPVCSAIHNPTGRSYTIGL
T1 sequence (Q9BQA1 whole entry partner): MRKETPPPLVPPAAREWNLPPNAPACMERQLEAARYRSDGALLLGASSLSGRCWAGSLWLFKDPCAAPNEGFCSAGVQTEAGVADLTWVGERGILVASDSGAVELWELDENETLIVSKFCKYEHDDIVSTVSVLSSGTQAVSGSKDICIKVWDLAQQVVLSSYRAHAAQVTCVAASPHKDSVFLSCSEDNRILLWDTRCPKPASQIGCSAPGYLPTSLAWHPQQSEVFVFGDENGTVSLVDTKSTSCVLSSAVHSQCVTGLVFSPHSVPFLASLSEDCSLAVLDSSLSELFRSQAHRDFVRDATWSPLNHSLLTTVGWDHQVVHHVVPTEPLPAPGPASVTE

Consider `Cc1nonc1COc1ccc(C(=O)NC[C@H](O)CNC2Cc3ccccc3C2)cc1` [Compound 8, (R)-N-(3-((2,3-Dihydro-1H-inden-2-yl)amino)-2-hydroxypropyl)-4-((4-methyl-1,2,5-oxadiazol-3-yl)methoxy)benzamide], for which the IC50 in experiment [1] came out at 263 nM; in experiment [2], 336 nM.

In the case of `Cn1cc(Oc2ccc(C(=O)NC[C@H](O)CNC3Cc4ccccc4C3)cc2)cn1` [Compound 13, (R)-N-(3-((2,3-Dihydro-1H-inden-2-yl)amino)-2-hydroxypropyl)-4-((1-methyl-1H-pyrazol-4-yl)oxy)benzamide], the results for the half-inhibitory concentration (IC50) in experiment [1] and in experiment [2] were 634 nM and 348 nM, respectively.

In the case of `O=C(NC[C@@H](O)CNC1Cc2ccccc2C1)c1ccc(Cl)cc1` [Compound 14, (S)-4-Chloro-N-(3-((2,3-dihydro-1H-inden-2-yl)amino)-2-hydroxypropyl)benzamide], the figures for the IC50 in experiment [1] and in experiment [2] were 445 nM and 210 nM, respectively.

For `O=C(NC[C@@H](O)CNC1Cc2ccccc2C1)c1ccc(C(=O)N2CCOCC2)cc1` [Compound 15, (S)-N-(3-((2,3-Dihydro-1H-inden-2-yl)amino)-2-hydroxypropyl)-4-(morpholine-4-carbonyl)benzamide], the IC50 is 218 nM in experiment [1], 30 nM in experiment [2] and 0.025 µM in experiment [3].

For `O=C(NC[C@@H](O)CNC1Cc2ccccc2C1)c1ccc(N2CCOCC2)nc1` [Compound 16, (S)-N-(3-((2,3-Dihydro-1H-inden-2-yl)amino)-2-hydroxypropyl)-6-morpholinonicotinamide], the values for the IC50 in experiment [1] and in experiment [2] were 301 nM and 259 nM, respectively.

Take `Cn1cc(Oc2ccc(C(=O)NC[C@@H](O)CNC3Cc4ccccc4C3)cc2)cn1` [Compound 18, (S)-N-(3-((2,3-dihydro-1H-inden-2-yl)amino)-2-hydroxypropyl)-4-((1-methyl-1H-pyrazol-4-yl)oxy)benzamide]: the IC50 is 238 nM in experiment [1] and 92 nM in experiment [2].

Regarding `O=C(NCC(O)CNC1Cc2ccccc2C1)c1ccc(C(=O)N2CCCCC2)cc1` (stereo not shown) [Compound 22, N-(3-((2,3-Dihydro-1H-inden-2-yl)amino)-2-hydroxypropyl)-4-(piperidine-1-carbonyl)benzamide], the 50% inhibitory concentration (IC50) is 171 nM in experiment [1], 18 nM in experiment [2] and 0.106 µM in experiment [3].

For the compound `O=C(NCC(O)CNC1Cc2ccccc2C1)c1ccc(-c2ccccc2)cc1` (stereo not shown) [Compound 24, N-(3-((2,3-Dihydro-1H-inden-2-yl)amino)-2-hydroxypropyl)-[1,1′-biphenyl]-4-carboxamide], the IC50 is 425 nM in experiment [1] and 363 nM in experiment [2].

With `O=C(NCC(O)CNC1CCc2ccccc2C1)c1ccc(Cl)cc1` (stereo not shown) [Compound 30, 4-Chloro-N-(2-hydroxy-3-((1,2,3,4-tetrahydronaphthalen-2-yl)amino)propyl)benzamide], the IC50 in experiment [1] worked out at 905 nM; in experiment [2], 1910 nM.

Turning to `CC(=O)N1CCC(Nc2cc(C(=O)NCC(O)CNC3Cc4ccccc4C3)ccn2)CC1` (stereo not shown) [Compound 35, 2-((1-Acetylpiperidin-4-yl)amino)-N-(3-((2,3-dihydro-1H-inden-2-yl)amino)-2-hydroxypropyl)isonicotinamide], the IC50 in experiment [1] amounted to 50 nM; in experiment [2], 8 nM; in experiment [3], 0.04 µM; in experiment [4] it was 155 nM.

Consider `C[C@@H]1COCCN1C(=O)c1ccc(C(=O)NC[C@@H](O)CNC2Cc3ccccc3C2)cc1` [Compound 37, N—((S)-3-((2,3-Dihydro-1H-inden-2-yl)amino)-2-hydroxypropyl)-4-((R)-3-methylmorpholine-4-carbonyl)benzamide], for which the IC50 in experiment [1] is 95 nM; in experiment [2], 19 nM; in experiment [4] it was 163 nM.

For `C[C@H]1COCCN1C(=O)c1ccc(C(=O)NC[C@@H](O)CNC2Cc3ccccc3C2)cc1` [Compound 38, N—((S)-3-((2,3-Dihydro-1H-inden-2-yl)amino)-2-hydroxypropyl)-4-((S)-3-methylmorpholine-4-carbonyl)benzamide], the concentration for half-maximal inhibition (IC50) was 210 nM in experiment [1], 11 nM in experiment [2], 0.053 µM in experiment [3] and 310 nM in experiment [4].

As for `O=C(NCC(O)CNC1Cc2ccccc2C1)c1ccc(C(=O)N2C3CCC2COC3)cc1` (stereo not shown) [Compound 40, 4-(3-Oxa-8-azabicyclo[3.2.1]octane-8-carbonyl)-N-(3-((2,3-dihydro-1H-inden-2-yl)amino)-2-hydroxypropyl)benzamide], the half-maximal inhibitory concentration (IC50) amounted to 57 nM in experiment [1], 2 nM in experiment [2] and 0.021 µM in experiment [3].

Consider `COc1cc(C(=O)N2CCOCC2)ccc1C(=O)NC[C@@H](O)CNC1Cc2ccccc2C1` [Compound 98, (S)-N-(3-((2,3-dihydro-1H-inden-2-yl)amino)-2-hydroxypropyl)-2-methoxy-4-(morpholine-4-carbonyl)benzamide], for which the values for the IC50 in experiment [2], in experiment [3] and in experiment [4] were 7 nM, 0.361 µM and 281 nM, respectively.
